Source: paper PMC11705955, “Lack of activity of HIV-1 integrase strand-transfer inhibitors on recombinase activating gene (RAG) activity at clinically relevant concentrations” (Microbiology Spectrum, 2024)

Tests used:
[1] = biological target: recombinant HIV-1 integrase; details: read-out: Target IC50 for integrase; cited from earlier work
[2] = biological target: T1, recombinant human core RAG1 (AA387-1011)/core RAG2 (AA1-387) in the presence of HMGB1 (Homo sapiens, UniProt P15918+P55895); test: Biochemical RAG DNA cleavage assay (gel-based, dsDNA 12RSS/23RSS substrate); details: for IC50: 25 nM RAG1-RAG2, 575 nM HMGB1, 10 nM dsDNA, 5 mM MgCl2, 1 h 37°C, no serum; for Inhibitory activity against RAG1/RAG2 cleavage: clinically relevant / supratherapeutic concentrations
T1 construct: made in house; host or cells: RAG1/RAG2 co-expressed in Expi293F GnTI human cells; HMGB1 in E. coli BL21DE3
T1 sequence (P15918 387-1011): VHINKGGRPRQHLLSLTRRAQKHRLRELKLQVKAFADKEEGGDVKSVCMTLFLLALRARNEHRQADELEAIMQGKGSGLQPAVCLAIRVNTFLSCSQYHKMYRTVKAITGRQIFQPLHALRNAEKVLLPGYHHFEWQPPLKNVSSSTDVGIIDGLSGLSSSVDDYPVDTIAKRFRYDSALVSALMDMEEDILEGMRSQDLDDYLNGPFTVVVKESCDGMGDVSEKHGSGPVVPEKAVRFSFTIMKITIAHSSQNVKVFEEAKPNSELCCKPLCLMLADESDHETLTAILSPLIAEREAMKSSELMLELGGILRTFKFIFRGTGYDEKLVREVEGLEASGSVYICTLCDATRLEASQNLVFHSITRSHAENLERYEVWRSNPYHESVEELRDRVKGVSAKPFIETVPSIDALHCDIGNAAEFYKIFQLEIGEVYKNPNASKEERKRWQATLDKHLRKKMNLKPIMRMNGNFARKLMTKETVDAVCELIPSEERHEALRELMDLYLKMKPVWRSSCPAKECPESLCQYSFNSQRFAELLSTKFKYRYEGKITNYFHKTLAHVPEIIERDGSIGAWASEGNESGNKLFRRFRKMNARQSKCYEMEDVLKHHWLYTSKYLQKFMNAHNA
T1 sequence (P55895 1-387): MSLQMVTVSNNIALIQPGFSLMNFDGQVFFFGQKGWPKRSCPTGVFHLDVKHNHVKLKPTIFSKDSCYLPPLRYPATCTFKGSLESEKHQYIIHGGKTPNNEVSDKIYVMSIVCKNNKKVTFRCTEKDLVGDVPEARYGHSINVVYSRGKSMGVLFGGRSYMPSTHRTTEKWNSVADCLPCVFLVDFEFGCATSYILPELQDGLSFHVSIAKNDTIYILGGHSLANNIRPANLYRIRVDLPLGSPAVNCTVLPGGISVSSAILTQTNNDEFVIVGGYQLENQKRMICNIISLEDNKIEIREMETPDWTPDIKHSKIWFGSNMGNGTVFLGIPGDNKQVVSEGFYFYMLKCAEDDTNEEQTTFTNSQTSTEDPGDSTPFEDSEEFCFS
Description: To directly observe the potential inhibition of RAG1/RAG2, we measured the effect of INSTIs on DNA cleavage by RAG1/RAG2 in the presence of HMGB1. This biochemical system utilizes pre-assembled recombinant human core RAG1 (AA387-1011)/core RAG2 (AA1-387) in the presence of excess truncated HMGB1 (AA1-163) and a linear dsDNA RSS substrate, using gel electrophoresis and a fluorescent dye to monitor cleavage products (Fig. 2A) ([24]). The dsDNA RSS substrate, containing both the 12RSS and 23RSS, was designed to have the different cleavage products resolved via gel electrophoresis. RAG1/RAG2 can singly cleave either the 12RSS or the 23RSS, or both, leading to potentially five different products in the reaction (Fig. 2B). HMGB1 orients RAG1/RAG2 for proper binding to the RSS substrate ([16]). We quantified the activity of RAG as the percentage of substrate conversion to a specific cleaved product, as separated by agarose gel electrophoresis and determined by the DNA-binding fluorescent dye. With the 569-bp substrate, a single cleavage of the 12RSS results in a 492-bp dsDNA and a 77-bp hairpin. Cleavage of the 23RSS alone produces a 433-bp dsDNA and a 136-bp hairpin. Successful cleavage of both RSSs results in a 356-bp dsDNA and both of the 77- and 136-bp hairpins. For the RAG activity analysis, we measured the amount of double cleaved product (356 bp) in relation to the amount of substrate (569 bp) at the end of the reaction. The optimal concentrations of RAG1/RAG2, HMGB1, and MgCl2 were determined through titration (Fig. S2). Because there is no direct RAG1/RAG2 inhibitor previously characterized, we used suramin, a polyanionic compound commonly used as a non-specific inhibitor for DNA/RNA binding or processing proteins as a control for inhibition ([25], [26]).
Prior to the cleavage assay, compounds at the designated concentrations were spotted into 96-well plates using the Tecan Digital D300e (Tecan, Mannedorf, Switzerland). RAG1/RAG2 was incubated with HMGB1 and MgCl2 on ice for at least 15 min in a reaction buffer (25-mM 3-(N-morpholino)propanesulfonic acid [MOPS], pH 7.0, 50-mM KCl, and 2-mM DTT). After the initial incubation, the enzyme solution was added to the compound plates and incubated for an additional 15 min at room temperature. dsDNA substrate in reaction buffer was added to the plates to initiate the reaction. The final conditions of the reaction are 25-nM RAG1–RAG2 complex, 575-nM HMGB1, 10-nM dsDNA substrate, and 5-mM MgCl2. After 1 h at 37°C, reactions were quenched by the addition of final concentrations of 0.19% SDS, 45.5-µg/mL Proteinase K, and 60-mM EDTA.
Glycerol was added to a final concentration of 7.6% in each sample, and samples were loaded onto non-denaturing 6% Tris–borate–EDTA (TBE) gels in 1× TBE buffer. The samples were run at 100 V for 1.5 h, and gels were stained with 1× SYBR Gold in 1× TBE for 20 min. The stained gels were imaged with an Amersham Typhoon Biomolecular Imager.
The gel images were analyzed using ImageQuant software (Cytiva). The densities of the 569-bp-length substrate and fully cleaved 356-bp-length product were quantified. The product density was divided by the sum of substrate and product bands to obtain a percent product value. These calculated values were subtracted from a negative control (pre-quenched reaction where EDTA was added before reaction was initiated) and then normalized to the DMSO-treated control. The normalized data were plotted against concentration using GraphPad Prism (version 9.3; GraphPad Software, San Diego, CA, USA).

[3] = cited from earlier work; for Human clinical free Cmax: Cmax corrected for protein binding
RAG1/RAG2 = details: cited from earlier work; for Effect on RAG binding or cleavage at the RSS: EVG 50–200 μM, RAL up to 200 µM
[4] = clinical concentrations; cited from earlier work
immunological competence = tested on: immunological competence; parameters: method as in PMID 22790968; details: TCR Vβ usage by flow cytometry and T cell-dependent antibody response; cited from earlier work

SMILES | IC50 [1] | IC50 [2] | Inhibitory activity against RAG1/RAG2 cleavage [2] | Human clinical free Cmax [3] | Effect on RAG binding or cleavage at the RSS (RAG1/RAG2) | Free drug fraction [4] | Impact on immunological competence in juvenile rats (immunological competence) | Decrease of DNA binding and cleavage by RAG1 (RAG1/RAG2; DTG 200–500 μM) | Cmax ([3]; at clinical dosage of Table 1 (EVG with 150 mg cobicistat))
O=C(NCc1c(F)cc(F)cc1F)c1cn2c(c(O)c1=O)C(=O)N1[C@H]3CC[C@H](C3)O[C@@H]1C2 [BIC, bictegravir] | 7.5 ± 0.3 nM | > 500 nM | do not show inhibitory activity | 34 nM | – | – | – | – | –
Cc1nnc(C(=O)NC(C)(C)c2nc(C(=O)NCc3ccc(F)cc3)c(O)c(=O)n2C)o1 [RAL, raltegravir] | – | > 10000 nM | do not show inhibitory activity | – | no effect on binding or cleavage | – | – | – | –
C[C@@H]1CCO[C@H]2Cn3cc(C(=O)NCc4ccc(F)cc4F)c(=O)c(O)c3C(=O)N12 [DTG, dolutegravir] | – | > 500 nM | – | 58 nM | – | 0.70% | no impact on immunological competence | 50%–75% | 8300 nM
COc1cc2c(cc1Cc1cccc(Cl)c1F)c(=O)c(C(=O)O)cn2[C@H](CO)C(C)C [EVG, elvitegravir] | – | > 500 nM | do not show inhibitory activity | 22 nM | inhibition of RAG cleavage at the RSS | 0.48% | – | – | –
C[C@H]1CO[C@@H]2Cn3cc(C(=O)NCc4ccc(F)cc4F)c(=O)c(O)c3C(=O)N12 [CAB, cabotegravir] | 3 nM | > 500 nM | do not show inhibitory activity | 25 nM | – | – | – | – | –
O=C(/C=C(\O)c1nnn[nH]1)c1c[nH]c2ccc(Cl)cc12 [p8, 5-CITEP] | – | 58200 ± 5600 nM | – | – | – | – | – | – | –
